Assay results published in US4696929A, “Derivative of piperazine having anti-allergic and anti-inflammatory action” (Taiho Pharmaceutical Company, Limited, priority 1984, dated 1987).

Assays:
5-lipoxygenase = target: T1, 5-lipoxygenase (Cavia porcellus, UniProt A0A286X958); assay: Assay of 5-lipoxygenase (PMNL cytosol fraction, 5-HETE formation); type: biochemical, guinea pig (male Hartley strain); conditions: 3 min pre-incubation, then [1-14C]arachidonic acid 5 min, 37° C., 1% DMSO, 5-HETE counted
T1 construct: 105,000×g for 60 min to obtain the cytosol fraction; endogenous in cells; host or cells: casein-elicited peritoneal polymorphonuclear leukocytes of male Hartley guinea pigs, 105,000×g cytosol fraction
T1 sequence (A0A286X958 1-674): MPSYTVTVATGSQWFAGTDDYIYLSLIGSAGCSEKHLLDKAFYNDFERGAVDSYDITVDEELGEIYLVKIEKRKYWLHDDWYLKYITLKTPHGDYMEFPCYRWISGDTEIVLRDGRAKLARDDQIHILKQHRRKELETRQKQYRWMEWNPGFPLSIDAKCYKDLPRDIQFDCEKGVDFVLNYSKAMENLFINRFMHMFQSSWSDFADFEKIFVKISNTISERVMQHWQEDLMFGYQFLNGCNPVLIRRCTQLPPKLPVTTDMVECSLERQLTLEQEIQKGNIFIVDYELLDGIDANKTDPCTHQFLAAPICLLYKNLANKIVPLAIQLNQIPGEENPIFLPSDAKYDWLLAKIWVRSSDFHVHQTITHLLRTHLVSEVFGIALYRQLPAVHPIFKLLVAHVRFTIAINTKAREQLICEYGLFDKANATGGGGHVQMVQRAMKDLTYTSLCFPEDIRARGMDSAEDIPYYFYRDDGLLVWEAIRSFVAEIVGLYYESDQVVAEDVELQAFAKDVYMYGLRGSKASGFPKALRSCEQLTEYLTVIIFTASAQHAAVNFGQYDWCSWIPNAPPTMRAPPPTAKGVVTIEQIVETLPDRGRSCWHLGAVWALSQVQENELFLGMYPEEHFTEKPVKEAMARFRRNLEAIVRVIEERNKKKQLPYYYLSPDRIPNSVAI
Protocol: Assay of 5-lipoxygenase […] Male Hartley strain guinea pigs weighing 580~740 g received intraperitoneal injection of 2% casein in saline (5 ml/100 g body weight). After 16~18 hr, the guinea pigs were sacrificed by bleeding from the carotid artery. Then 50 ml of Dulbecco's phosphate-buffered saline (PBS(-)) containing 5 units/ml of heparin were injected into the peritoneal cavity and peritoneal exudate was collected. The exudate was combined and filtered through 4 layers of cheese cloth, followed by centrifugation at 1,000 rpm for 10 min. Cell pellets were suspended in small amounts of PBS(-) and treated 3 volumes of 0.2% NaCl to lyse contamination red blood cells. The cells (80% or more PMNL as identified by Wright-Giemsa stain) were washed twice with buffer A (130 mM NaCl, 25 mM phosphate, pH 7.4, 1 mM EDTA). The washed cells (1×10^8 cells/ml) were resuspended in 50 mM phosphate (pH 7.4) containing 1 mM EDTA and 0.1% gelatin, sonicated and centrifuged at 10,000×g for 20 min. The supernatant solution was further centrifuged at 105,000×g for 60 min to obtain the cytosol fraction. Enzyme assays Test compounds were dissolved in dimethyl sulfoxide (DMSO), and the final concentration of DMSO was kept at 1% in each experiment. […] Each reaction was terminated by precipitating the proteins with 1 ml acetone and added 0.5 ml ice-cold saline. The pH was adjusted to about 3 with 150 μl 2N formic acid. The mixture was extracted twice with 2 ml chloroform. […] Radioactive zone of 5-HETE [5(S)-hydroxy-6,8,11,14-eicosatetraenoic acid] was detected by autoradiography, scraped from the TLC plates, and counted by a liquid scintillation counter. IC50 (50% Inhibition Concentration) value indicates the concentration to decrease the enzymatic product by 50% as compared to that of vehicle-treated control.

lipoxygenase = conditions: background art; cited from earlier work
cyclooxygenase = conditions: background art; cited from earlier work
platelet cyclooxygenase = target: T2, platelet cyclooxygenase (Oryctolagus cuniculus, UniProt O97554); assay: Assay of platelet cyclooxygenase (intact washed platelets, TXB2 formation); type: cell-based, rabbit (male New Zealand White); conditions: 3 min pre-incubation, then [1-14C]arachidonic acid 5 min, 37° C., TXB2 counted
T2 construct: 1 ml of intact washed platelet suspensions were pre-incubated with test compounds; endogenous in cells; host or cells: intact washed platelets of male New Zealand White rabbits
T2 sequence (O97554 31-606): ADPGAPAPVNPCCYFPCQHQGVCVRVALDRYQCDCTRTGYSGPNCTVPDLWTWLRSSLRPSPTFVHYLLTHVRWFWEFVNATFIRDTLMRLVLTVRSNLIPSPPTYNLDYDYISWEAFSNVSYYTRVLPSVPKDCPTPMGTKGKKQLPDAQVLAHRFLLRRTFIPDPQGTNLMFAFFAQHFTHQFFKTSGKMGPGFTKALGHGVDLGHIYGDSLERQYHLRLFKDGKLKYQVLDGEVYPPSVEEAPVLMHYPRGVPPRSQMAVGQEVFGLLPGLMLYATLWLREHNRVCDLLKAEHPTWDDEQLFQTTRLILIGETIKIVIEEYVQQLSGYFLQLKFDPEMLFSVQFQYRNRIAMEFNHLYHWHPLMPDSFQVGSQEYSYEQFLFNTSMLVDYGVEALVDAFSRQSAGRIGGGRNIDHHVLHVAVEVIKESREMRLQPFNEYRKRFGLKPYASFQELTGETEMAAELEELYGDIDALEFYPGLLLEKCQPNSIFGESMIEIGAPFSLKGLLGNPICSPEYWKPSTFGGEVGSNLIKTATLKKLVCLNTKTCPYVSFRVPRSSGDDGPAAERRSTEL
Protocol: Assay of platelet cyclooxygenase
Preparation of washed platelet
Citrated blood (blood/3.8% sodium citrate=9:1 by volume) was obtained by heart-puncture from male New Zealand White rabbits weighing 3.21~4.75 kg and centrifuged at 1,000 rpm for 10 min. The platelet-rich plasma (the supernatant layer: PRP) was further centrifuged at 3,000 rpm for 10 min, and the resulting platelet was washed twice with buffer A (130 mM NaCl, 25 mM phosphate, pH 7.4, 1 mM EDTA). The washed platelets were resuspended in 50 mM phosphate (pH 7.4) containing 1 mM EDTA and adjusted 1×10^8 platelets/ml.
For the platelet cyclooxygenase assays, 1 ml of intact washed platelet suspensions were pre-incubated with test compounds (dissolved in DMSO) in the presence of 1 mM GSH at 37° C. for 3 min, and then the mixture was incubated with [1-^14 C]arachidonic acid (0.1 μCi) at 37° C. for 5 min. Each reaction was terminated and extracted by the addition of 3 ml of ethyl acetate/methanol/1M citric acid (30:4:1, v/v). The organic layer was evaporated under a N2 gas stream, redissolved in 30 μl of chloroform/methanol (2:1, v/v), and applied 20 μl to Silica gel TLC plates, and developed in the solvent system chloroform/methanol/acetic acid/H2 O (90:8:1:0.8, v/v). Radioactive zone of TXB2 (Thromboxane B2) was detected by autoradiography, scraped from the TLC plates, and counted by a liquid scintillation counter. IC50 value indicates the concentration to decrease the enzymatic product by 50% as compared to that of vehicle-treated control.

SMILES | IC50 (5-lipoxygenase) | IC50 (platelet cyclooxygenase) | lipoxygenase inhibition (in words) (lipoxygenase) | cyclooxygenase inhibition (in words) (cyclooxygenase)
CC(C(=O)O)c1ccc2oc(-c3ccc(Cl)cc3)nc2c1 (stereo not drawn) [Benoxaprofen, 2-(4-chlorophenyl)-α-methyl-5-benzoxazoleacetic acid] | 24 µM | – | lipoxygenase-inhibiting actions | cyclooxygenase-inhibiting
COc1ccc2c(c1)c(CC(=O)OC(C)CN1CCN(CCCO)CC1)c(C)n2C(=O)c1ccc(Cl)cc1 (stereo not shown) [Example 8, 2-{4-(3-hydroxypropyl)-1-piperazinyl}-1-methylethyl 1-(p-chlorobenzoyl)-5-methoxy-2-methyl-3-indoylacetate dimaleate] | 6.9 µM | 30.6 µM | – | –
COc1ccc2c(c1)c(CC(=O)OC(C)CN1CCN(CCCCCO)CC1)c(C)n2C(=O)c1ccc(Cl)cc1 (stereo not shown) [Example 10, 2-{4-(5-hydroxypentyl)-1-piperazinyl}-1-methylethyl 1-(p-chlorobenzoyl)-5-methoxy-2-methyl-3-indoylacetate dimaleate] | 6.2 µM | 22.8 µM | – | –
COc1ccc2c(c1)c(CC(=O)OC(C)(C)CN1CCN(CCCOC3CCCCO3)CC1)c(C)n2C(=O)c1ccc(Cl)cc1 (stereo not shown) [Example 13, 1-methyl-2-[4-{3-(2-tetrahydropyranyloxy)propyl}-1-piperazinyl]-2-methyl-2-propyl 1-(p-chlorobenzoyl)-5-methoxy-2-methyl-3-indoylacetate] | 4.7 µM | 22.3 µM | – | –
COc1ccc2c(c1)c(CC(=O)O)c(C)n2C(=O)c1ccc(Cl)cc1 [Indomethacin] | 242 µM | – | does not inhibit lipoxygenase reaction | has cyclooxygenase-inhibiting action

Continued, in another order:

IC50 (5-lipoxygenase) | IC50 (platelet cyclooxygenase) | SMILES | lipoxygenase inhibition (in words) (lipoxygenase) | cyclooxygenase inhibition (in words) (cyclooxygenase)
1.6 µM | 20.4 µM | COc1ccc2c(c1)c(CC(=O)OC(CN1CCN(CCCO)CC1)c1ccccc1)c(C)n2C(=O)c1ccc(Cl)cc1 (stereo not shown) [Example 7, 2-{4-(3-hydroxypropyl)-1-piperazinyl}-1-phenylethyl 1-(p-clorobenzoyl)-5-methoxy-2-methyl-3-indoylacetate dimaleate] | – | –
1.7 µM | 9.2 µM | COc1ccc2c(c1)c(CC(=O)OC(CN1CCN(CCO)CC1)c1ccccc1)c(C)n2C(=O)c1ccc(Cl)cc1 (stereo not shown) [Example 9, 2-{4-(2-hydroxyethyl)-1-piperazinyl}-1-phenylethyl 1-(p-chlorobenzoyl)-5-methoxy-2-methyl-3-indoylacetate dimaleate] | – | –
4.7 µM | 41.2 µM | COc1ccc2c(c1)c(CC(=O)OC(C)CN1CCN(CCCCCCO)CC1)c(C)n2C(=O)c1ccc(Cl)cc1 (stereo not shown) [Example 11, 2-{4-(6-hydroxyhexyl)-1-piperazinyl}-1-methylethyl 1-(p-chlorobenzoyl)-5-methoxy-2-methyl-3-indoylacetate dimaleate] | – | –
0.9 µM | – | COc1ccc2c(c1)c(CC(=O)OC(CN1CCN(CCCCCCCCCCO)CC1)c1ccccc1)c(C)n2C(=O)c1ccc(Cl)cc1 (stereo not shown) [Example 12, 2-{4-(10-hydroxydecyl)-1-piperazinyl}-1-phenylethyl 1-(p-chlorobenzoyl)-5-methoxy-2-methyl-3-indoylacetate dimaleate] | – | –
